Assay results from patent publication US9180115B2, “Cyclohexylamines” (Asana Biosciences, LLC, priority 2011, dated 2015).
Where “and” joins values, the source holds several entries; their conditions need not be identical. Equal values may be shown once. Read-outs that look alike come from different tables or passages of the source.

What was measured:
[1] = system: sodium channel response in hTRPV1-N1E115 cells; assay: FLIPR membrane potential assay of sodium channel response in hTRPV1-N1E115 cells with or without heat (47° C.) activation; type: cell-based; details: for hTRPV1-N1E Nav 0.1 mM (% inhibition) 25° C. / hTRPV1-N1E Nav 1 mM (% inhibition) 25° C.: 25° C. (no heat activation); for IC50: read-out: hTRPV1-N1E IC50 (μM) 47° C.; for hTRPV1-N1E Nav 0.1 mM (% inhibition) 47° C. / hTRPV1-N1E Nav 1 mM (% inhibition) 47° C.: 47° C. (heat activated)
Source text: In one embodiment, a modified FLIPR® (Fluorometric Imaging Plate Reader) based assay system was developed which is capable of discriminating between non-specific versus hTRPV1-mediated entry of test compounds. Advantageously, the assay system utilizes heat activated opening of hTRPV1 channels followed by an assessment of internal sodium channel block. The assay allows a permanently charged compound to selectively enter through opened hTRPV1 channels and that compound's potency in inhibiting sodium channels from the cytoplasm side of the same cell can be assessed and quantified.
The test compounds are diluted in the Assay Buffer and added to each well of a specific 384-well ‘compound plate’, which serves as a source plate for compound addition using the FLIPR® platform. The concentration of compounds in the compound-plate was adjusted to achieve the desired final concentration when added to the cells in the ‘cell-plate’. After completion of the dye incubation period, the dye loaded cell-plates and the compound source plates are inserted into the FLIPR® Tetra device with a 384 FLIPR® tip box (Molecular Devices, Inc.) according to manufacturer's instructions. The compounds are robotically added to the dye loaded cell-plates using software integral to the FLIPR® Tetra instrument.
Immediately following compound addition, hTRPV1 is activated, in one of the duplicate cell plates, by heating. Specifically, entire multi-well plate containing the compound-cells mixture is incubated at 47° C. for 10 minutes, after which they are returned to room temperature (about 25° C.) for a further 30 minutes. Heat activation of hTRPV1 was omitted from the replicate cell plate which was simply maintained at room temperature for the entire 40 minutes.
A membrane potential response is elicited in the dye- and compound-loaded cells by the addition of veratridine which is a known sodium channel ‘agonist’. As illustrated in an example herein, an agonist plate containing veratridine (Sigma) is prepared in advance and is inserted into suitable devices such as, e.g., the FLIPR® TETRA device for a “2nd addition” as instructed by the manufacturer. The concentration of veratridine in the ‘agonist plate’ was adjusted to achieve a final concentration of 100 μM when added to the cells in the cell-plate. Final concentrations of veratridine greater or lesser than 100 μM may also be used but the signal measured by the FLIPR® TETRA device or another suitable device may vary accordingly.
The exposure of the cells in the cell-plate to veratridine induces sodium channels in the cells to open and the resulting ion flux produces a membrane potential depolarization that is detected as a fluorescence signal by the FLIPR® Tetra Device. The activity of test compounds is determined by their ability to attenuate the veratridine-induced fluorescence signal, the most promising compounds are those that show an enhanced activity in the heat-activated cell plate over the non-heat-activated cell plate. This differential activity reflects enhanced compound uptake via the heat activated and open hTRPV1 channels and rests on the fact that sodium channel block requires test compounds to act from the cytoplasmic side of the cell membrane.
In vitro assays were developed for assessing the inhibition of sodium channel response with compounds following stimulation by heat (47° C.) in cells expressing hTRPV1.
(v) Membrane potential Assay to Assess Sodium Channel Function in hTRPV1-Expressing Cells • Cells were plated at 5000 per 50 μL [DMEM+10% FBS+300 μg/mL H\hygromycin] per well, in a 384 clear bottom poly-D-lysine coated plate and incubated at 37° C. and 5% CO2 for 48 hours. On the day of the assay, media were discarded gently and 30 μL of the dye [FMP blue dye was prepared in assay buffer] per well was added and dye-loading was allowed to proceed for 20 min at room temperature. […]

[2] = target: T1, human Nav1.5 sodium channel (Homo sapiens, UniProt Q14524); assay: FLIPR membrane potential assay in hNav1.5-HEK293 cells; type: cell-based
T1 construct: host or cells: HEK-293
Description: C. Method for Assessing the Extent of Inhibition of Sodium Channel Response with Compounds in hNav1.5-HEK293 Cells.
The following assay was used to assess the tendency of the test compounds to block the dominant cardiac sodium channel isoform. Nav1.5 sodium channels are known to be permeable to quaternary sodium channel blockers such as QX-314 and, thus, the assay was performed in the absence of a chemical TRPV1 agonist.
The hNav1.5-HEK-293 cells (CreaCell, France, a human embryonic kidney cell line expressing the human Nav1.5 sodium channel) were cultured in Growth medium (containing 1×DMEM (Gibco)+10% FBS (PAA Gold)+2% glutamine 100 mM (Gibco)+1% penicillin 10,000 U/mL streptomycin 10,000 μg/mL (Invitrogen)+1.2 mg/mL Geneticin® G418 (Invitrogen)) in 75 mL cell bind flasks (Corning). The following steps were followed exactly as mentioned. The spent medium was discarded and the cells rinsed once with PBS-1×. Accutase® (1-2 mL; PAA) solution was added. The plate was placed on a 37° C. warming incubator 3-5 minutes. As soon as cells are detached, 37° C. complete medium (9 mL) was added. The cell suspension is drawn into a sterile pipette and cells homogenized gently to dissociate cell aggregates. The cells were counted using a hemocytometer with Blue Trypan and then centrifuged 5 minutes at 400 g. The cells can be amplified or maintained by seeding […] in a T75 flask (final volume: 15 mL). 8000 cells in 50 μL Growth medium was added to each well of 384-well, clear bottomed, sterile poly-D-lysine coated plates with lid (Greiner-bio one) inside the laminar air-flow. The plates were incubated at 37° C. and 5% CO2 in a CO2 incubator (Thermo) for 48 hours.
On the day of the assay, cells were washed with Assay buffer, which was prepared using the components and amounts in the following Table 5. pH was adjusted to 7.4 with NaOH, volume made up to 500 mL with Milli-Q® water.
Assay Buffer was added to the cells and incubated at rt (25° C.) for 10 minutes. The compounds were diluted in assay buffer. The compounds were added and incubated at rt (25° C.) for 10 minutes. Red FMP Dye (MDC) was added to the cells and the plate was incubated at rt (25° C.) for 30 minutes. Veratridine stock (20 mM; Sigma) was prepared in DMSO; veratridine (final concentration of 30 μM) in assay buffer was added to each well of the cell seeded plates in the FLIPR and read taken for 10 minutes. The following table provides data illustrating the sodium channel activity of the test compounds in response to the presence or absence of heat stimulation in cells expressing hTRPV1. The compounds were tested for differential activity at 25° C. and 47° C. and at two test concentrations.

[3] = system: Male Sprague Dawley (SD) rats; assay: In vivo assay of mechanical nociception (rat pinch model, perisciatic injection)
[4] = test compound 0.5%, lidocaine 2%, injection 200 μL
[5] = read-out: HEK Nav 1.5 IC50 (μM) (AVG)
[6] = test compound 0.5%, lidocaine 2%, injection 100 μL

T1 sequence (Q14524 whole entry): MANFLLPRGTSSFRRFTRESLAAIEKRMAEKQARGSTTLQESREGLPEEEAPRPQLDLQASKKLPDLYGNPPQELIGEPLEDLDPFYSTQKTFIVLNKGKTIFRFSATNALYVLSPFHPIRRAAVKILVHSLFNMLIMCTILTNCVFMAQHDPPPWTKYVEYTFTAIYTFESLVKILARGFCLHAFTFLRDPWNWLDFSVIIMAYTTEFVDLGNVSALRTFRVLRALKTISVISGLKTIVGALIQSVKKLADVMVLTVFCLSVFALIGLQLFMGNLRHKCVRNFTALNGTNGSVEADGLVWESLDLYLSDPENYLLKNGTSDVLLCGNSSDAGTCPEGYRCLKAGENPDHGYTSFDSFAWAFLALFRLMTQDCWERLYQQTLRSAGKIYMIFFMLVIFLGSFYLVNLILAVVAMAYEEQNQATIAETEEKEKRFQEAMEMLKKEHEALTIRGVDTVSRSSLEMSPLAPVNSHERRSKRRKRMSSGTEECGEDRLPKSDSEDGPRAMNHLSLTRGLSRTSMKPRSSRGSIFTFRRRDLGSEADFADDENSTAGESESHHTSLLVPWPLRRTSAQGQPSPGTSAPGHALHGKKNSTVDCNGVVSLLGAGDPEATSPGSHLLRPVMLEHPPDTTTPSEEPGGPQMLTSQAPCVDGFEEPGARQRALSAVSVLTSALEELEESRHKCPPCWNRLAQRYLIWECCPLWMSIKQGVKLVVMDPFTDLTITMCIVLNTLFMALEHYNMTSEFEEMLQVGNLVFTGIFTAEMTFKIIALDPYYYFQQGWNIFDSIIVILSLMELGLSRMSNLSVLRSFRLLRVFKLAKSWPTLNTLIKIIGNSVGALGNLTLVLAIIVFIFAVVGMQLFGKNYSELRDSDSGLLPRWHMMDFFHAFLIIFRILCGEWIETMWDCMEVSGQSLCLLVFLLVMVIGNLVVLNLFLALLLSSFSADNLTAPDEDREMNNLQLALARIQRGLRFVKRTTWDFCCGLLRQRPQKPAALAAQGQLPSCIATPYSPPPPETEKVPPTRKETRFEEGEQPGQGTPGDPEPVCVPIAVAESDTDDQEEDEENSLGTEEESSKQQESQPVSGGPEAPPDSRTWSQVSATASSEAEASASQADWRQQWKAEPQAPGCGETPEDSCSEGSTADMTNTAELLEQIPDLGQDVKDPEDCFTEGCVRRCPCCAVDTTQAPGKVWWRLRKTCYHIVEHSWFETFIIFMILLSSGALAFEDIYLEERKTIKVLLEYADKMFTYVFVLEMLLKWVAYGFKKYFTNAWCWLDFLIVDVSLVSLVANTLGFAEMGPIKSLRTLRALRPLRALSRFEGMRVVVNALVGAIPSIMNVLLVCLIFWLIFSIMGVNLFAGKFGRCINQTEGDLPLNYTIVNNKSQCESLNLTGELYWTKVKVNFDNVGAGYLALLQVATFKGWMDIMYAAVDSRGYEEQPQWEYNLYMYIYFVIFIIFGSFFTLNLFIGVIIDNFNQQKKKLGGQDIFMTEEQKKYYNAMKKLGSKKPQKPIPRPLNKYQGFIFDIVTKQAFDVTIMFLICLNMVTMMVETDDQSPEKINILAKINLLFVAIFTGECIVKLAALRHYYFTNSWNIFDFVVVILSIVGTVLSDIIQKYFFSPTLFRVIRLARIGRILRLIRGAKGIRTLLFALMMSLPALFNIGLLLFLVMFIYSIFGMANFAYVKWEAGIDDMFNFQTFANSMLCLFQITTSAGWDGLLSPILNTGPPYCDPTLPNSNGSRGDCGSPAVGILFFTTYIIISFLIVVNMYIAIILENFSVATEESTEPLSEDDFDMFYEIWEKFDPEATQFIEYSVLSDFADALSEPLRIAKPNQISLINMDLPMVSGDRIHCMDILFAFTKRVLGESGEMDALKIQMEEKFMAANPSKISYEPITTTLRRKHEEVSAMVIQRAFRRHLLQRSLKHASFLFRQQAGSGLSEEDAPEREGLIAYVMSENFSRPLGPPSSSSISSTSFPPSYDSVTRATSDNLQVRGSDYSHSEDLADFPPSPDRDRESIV

Row | SMILES | hTRPV1-N1E Nav 0.1 mM (% inhibition) 25° C. [1] | IC50 ([1]; 47° C.) [µM] | IC50 ([2]; HEK Nav 1.5 IC50 (μM) (AVG)) [µM] | Average Time of Analgesia [3, 4] | hTRPV1-N1E Nav 0.1 mM (% inhibition) 47° C. [1] | IC50 [2, 5] [µM] | further results
1 | C[C@H](C[N+](C)(C)C1CCCCC1)OC(=O)c1ccc(C(C)(C)C)cc1.[I-] [Example 47, (R)-N-[2-((4-(tert-butyl)benzoyl)oxy)propyl]-N,N-dimethylcyclo-hexanaminium iodide] | 54 (N = 4) % | 10 to 100 | 255 | 24 h |  |  | 
2 | C[C@@H](C[N+](C)(C)C1CCCCC1)OC(=O)c1ccc(C(C)(C)C)cc1.[Br-] [Example 5, (S)—N-[2-((4-(tert-butyl)benzoyl)oxy)propyl]-N,N-dimethylcyclohexanaminium bromide] | 45 (N = 4) % | 10 to 100 | 305 |  |  |  | paw withdrawal vocalization force ([3]; 0.45% solution with 2% lidocaine, FIG. 1): remained at cut-off for the duration of the experiment; Average Time of Analgesia ([3]; test compound 0.2%, lidocaine 2%, injection 200 μL): 2 h; Average Time of Analgesia ([3]; test compound 0.3%, lidocaine 2%, injection 200 μL): 24 h; Average Time of Analgesia ([3]; test compound 0.4%, lidocaine 2%, injection 200 μL): 44 h; Average Time of Analgesia ([3]; test compound 0.45%, lidocaine 2%, injection 200 μL): >64 h
3 | CC(C[N+](C)(C)C1CCCCC1)OC(=O)c1ccc(C(C)(C)C)cc1.[I-] (stereo not drawn) [Example 12, N-[2-((4-(tert-Butyl)benzoyl)oxy)propyl]-N,N-dimethyl-cyclohexanaminium iodide] | 25 (N = 4) % | 10 to 100 | 134 | 0.5 h | 84 (N = 4) % |  | hTRPV1-N1E Nav 1 mM (% inhibition) 25° C. [1]: 17 (N = 4) %; hTRPV1-N1E Nav 1 mM (% inhibition) 47° C. [1]: 88 (N = 4) %
4 | CC1CCC([N+](C)(C)CC(C)OC(=O)c2ccc(C(C)(C)C)cc2)CC1.[I-] (stereo not drawn) [Example 38, N-[2-((4-(tert-butyl)benzoyl)oxy)propyl]-N,N,4-trimethylcyclo-hexanaminium iodide] | 75 (N = 4) % | 10 to 100 |  |  | 95 (N = 4) % | 54 | 
5 | CC(C[N+](C)(C)C1CCCCC1)OC(=O)c1ccccc1C(C)C.[I-] (stereo not drawn) [Example 2, N-[2-((2-isopropylbenzoyl)oxy)propyl]-N,N-dimethylcyclohexanaminium iodide] | 23 (N = 4) % | 10 to 100 |  | 12 h | 77 (N = 4) % | 188 | hTRPV1-N1E Nav 1 mM (% inhibition) 25° C. [1]: 78 (N = 4) %; hTRPV1-N1E Nav 1 mM (% inhibition) 47° C. [1]: 89 (N = 4) %
6 | Cc1cc(C)c(C(=O)OC(C)C[N+](C)(C)C2CCC(C)CC2)c(C)c1.[I-] (stereo not drawn) [Example 39, N,N,4-Trimethyl-N-[2-((2,4,6-trimethyl-benzoyl)oxy)propyl] cyclohexanaminium iodide] | 41 (N = 4) % | 10 to 100 |  |  | 7 (N = 4) % | 89 | 
7 | C[C@H](C[N+](C)(C)C1CCCCC1)OC(=O)c1ccc(C(C)(C)C)cc1.[Br-] [Example 48, (R)-N-[2-((4-(tert-butyl)benzoyl)oxy)propyl]-N,N-dimethylcyclo-hexanaminium bromide] | 48 (N = 4) % | 10 to 100 | 252 |  |  |  | 
8 | Cc1cccc(C)c1C(=O)OC(C)C[N+](C)(C)C1CCCCC1.[I-] (stereo not drawn) [Example 6, N-[2-((2,6-Dimethylbenzoyl)oxy)propyl]-N,N-dimethylcyclohexanaminium iodide] |  |  |  | 14 h and 10 h |  | 684 | hTRPV1-N1E Nav (% inhibition) 25° C., 0.5 mM ([1]; 0.5 mM, 25° C.): 24 (N = 2, %; hTRPV1-N1E Nav (% inhibition) 47° C., 0.5 mM ([1]; 0.5 mM, 47° C.): 80 (N = 2, %; hTRPV1-N1E Nav (% inhibition) 25° C., 5 mM ([1]; 5 mM, 25° C.): 58 (N = 2, %; hTRPV1-N1E Nav (% inhibition) 47° C., 5 mM ([1]; 5 mM, 47° C.): 92 (N = 2, %; hTRPV1-N1E IC50 (μM) 47° C. ([1]; 47° C.): B ′; inhibition at 10 min, 0.5 mM ([2]; human, hNav1.5-HEK293 cells (HEK-293 cells expressing human Nav1.5), pH 7.4, 0.5 mM, read-out: HEK Nay 1.5% inh. @ 0.5 mM): 30%; inhibition at 10 min, 1.5 mM ([2]; human, hNav1.5-HEK293 cells (HEK-293 cells expressing human Nav1.5), pH 7.4, 1.5 mM, read-out: HEK Nav 1.5% inh. @ 1.5 mM): 68%; analgesic effects in the absence of lidocaine ([3]; absence of lidocaine): analgesic effects of significant duration; Average Time of Analgesia ([3]; test compound 0.5%, lidocaine 0%, injection 200 μL): 5 h; Average Time of Analgesia [3, 6]: 8 h
9 | C[C@@H](C[N+](C)(C)C1CCCCC1)OC(=O)c1ccc(C(C)(C)C)cc1.[I-] [Example 46, (S)-N-[2-((4-(tert-butyl)benzoyl)oxy)propyl]-N,N-dimethylcyclo-hexanaminium iodide] | 40 (N = 4) % |  | 232 | 24 h |  |  | 
10 | CC(C[N+](C)(C)C1CCCCC1)OC(=O)c1sc2ccccc2c1Cl.[I-] (stereo not drawn) [Example 31, N-[2-((3-Chloro-benzo[b]thiophene-2-carbonyl)oxy)propyl]-N,N-dimethyl-cyclohexanaminium iodide] | 27 (N = 4) % | 10 to 100 |  |  | 94 (N = 4) % | 160 | 
11 | Cc1cc(C)c(C(=O)OC(C)C[N+](C)(C)C2CCCCC2)c(C)c1.[I-] (stereo not drawn) [Example 1, N,N-dimethyl-N-[2-((2,4,6-trimethylbenzoyl)oxy)propyl]cyclohexanaminium iodide] | 13 (N = 4) % | 10 to 100 |  |  | 73 (N = 4) % | 240 | hTRPV1-N1E Nav 1 mM (% inhibition) 25° C. [1]: 53 (N = 4) %; hTRPV1-N1E Nav 1 mM (% inhibition) 47° C. [1]: 92 (N = 4) %; Average Time of Analgesia [3, 6]: 7 h
